Assay results from US11261220B2, “Salmonella siiE-derived peptides for manipulation of long-lived plasma cells” (DEUTSCHES RHEUMA-FORSCHU[…], priority 2017, dated 2022).

Experiments:
[1] = system: B cells and IgG-secreting plasma cells in the BM; conditions: i.p. twice a day 5 μg for 4 days
Experimental: C57BL/6 mice were injected i.p. twice a day with 5 μg of AMD3100 for 4 days. B220+cells and IgG-secreting plasma cells were analyzed on day 4 by flow cytometry (H) and by ELISpot assay (I), respectively. n=5-6. The data are representative of at least two independent experiments. *p<0.05, **p<0.01, ***p<0.001.
To count Ig-secreting cells, MultiScreen filter plates with PVDF membrane (Merck) were activated for 1 min with 35% ethanol followed by washing and were coated with 7.2 μg/ml of goat anti-mouse Ig, F(ab′)2 fragment (Jackson ImmunoResearch) overnight at 4° C. After washing and blocking with RPMI1640/10% FCS, diluted fresh cells were added and incubated for 5 h at 37° C. Following incubation, alkaline phosphatase-conjugated anti-IgG, IgG1, IgM or IgA (Southern Biotech) was added for 1 h at 37° C. and spots were visualized with BCIP/NBT Plus substrate (Mabtech) and were counted by ELISpot reader (AID).

[2] = system: BM IgG-secreting plasma cells; assay: ELISpot count of Ig-secreting cells the day after i.p. SiiE peptide; format: in vivo; conditions: C57BL/6 mice, i.p. 100 μg peptide, analyzed on the next day
Experimental: FIG. 5. Identification of the microbial component reducing numbers of BM IgG-secreting plasma cells. (A) Salmonella colonizes in the spleen and liver but not in the BM. The CFU of Salmonella in the spleen, liver and BM of Salmonella-infected mice on day 4 after infection was counted. The dotted line represents the limit of detection. n=3-6. […] C57BL/6 mice received 200 μl of LB medium, untreated or LPS-depleted culture supernatants from flagellin-deficient attenuated Salmonella or Escherichia coli (ΔLonΔFIhD) and on the next day (24 h later) were analyzed for IgG-secreting cells by ELISpot assay. n=8. […] Mice were infected i.p. with 200 μl of LB and LPS-depleted supernatant from flagellin-deficient attenuated Salmonella on day 41 and analyzed for IgG-secreting cells on the next day. n=6. […] C57BL/6 mice received i.p. 200 μl of LB medium and LPS-depleted supernatants from attenuated Salmonella ΔLon or ΔLonΔSiiE and on the next day were analyzed for IgG-secreting cells by ELISpot assay. n=5. […] C57BL/6 mice received i.p. 100 μg peptide coding SiiE amino acid 129-168 and on the next day were analyzed for IgG- and IgM-secreting cells in the BM and spleen. n=5. […] BM or splenic cells from C57BL/6 mice were incubated with 30 μg/ml of GST-SiiE 97-170 or GST protein, stained with anti-GST antibodies, and analyzed by flow cytometry. n=3. […] Adherent cells were counted after washing.

[3] = system: anti-DNA IgG-secreting plasma cells in the BM; assay: Murine model of systemic lupus erythematosus, anti-DNA IgG ELISpot in BM; format: in vivo; conditions: NZB/VV Fl female mice 5-6 months old, i.p. 100 μg on days 0, 3, 7 and 10, ELISpot on day 11
Experimental: FIG. 15. SiiE129 peptide reduce numbers of DNA-specific IgG-secreting plasma cells in the bone marrow. […] NZB/VV Fl female mice (5-6 months old) received i.p. 100 μg peptide coding SiiE amino acid 129-168 on days 0, 3, 7 and 10 and on day 11 were analyzed for anti-DNA IgG-secreting cells in the BM by ELISpot assay. n=5-6. The data are representative of two independent experiments.
NZB/VV Fl female mice (5-6 months old) received i.p. 100 μg peptide coding SiiE amino acid 129-168 on days 0, 3, 7 and 10 and on day 11 were analyzed for anti-DNA IgG-secreting cells in the BM by ELISpot assay.

With `c1cc(CN2CCCNCCNCCCNCC2)ccc1CN1CCCNCCNCCCNCC1` [AMD3100] as the molecule, how does the “B cell numbers in the BM” value ([1]; B220+ cells by flow cytometry on day 4) read?
Its value is “numerically reduces B cells”.

And the “numbers of IgG-secreting plasma cells in the BM” value ([1]; ELISpot on day 4)?
Its value is “but not IgG-secreting plasma cells in the BM”.

“KEADKAKEEAEKAKEAAEKALNEAFEVQNSSKQIEEMLQN (listed as Salmonella enterica) [SiiE 129-168]” was tested. Which “numbers of BM IgG-secreting plasma cells” value [2] did it give?
The value was “markedly reduced numbers of BM IgG-secreting plasma cells”.

And the “numbers of BM IgG-secreting plasma cells” value ([2]; listed as peptide coding SiiE amino acid 129-168)?
The value was “reduces numbers of BM IgG-secreting plasma cells”.

And the “number of anti-DNA IgG-secreting cells in bone marrow” value [3]?
The value was “reduces the number of Anti-DNA IgG-secreting cells in bone marrow”.

What about the “number of anti-DNA IgG-secreting cells in bone marrow” value ([3]; listed as SiiE129 peptide) of the same molecule?
The value was “reduces numbers of anti-DNA IgG-secreting plasma cells in the BM”.
